Experimental data published in patent US9693992B2 (MannKind Corporation, priority 2010, dated 2017).

Each molecule was assayed against IRE-1α (Homo sapiens (Human), UniProt O75460) (assay: Cellular EC50: endogenous XBP-1 splicing in myeloma cells (MM.1s, DTT stress, RT-PCR)). Conditions: average cellular EC50, XBP-1 splicing in myeloma cells.
Assay type: cell-based
Description: Human myeloma MM.1s cells are incubated with a compound for 1.25 hours before stressing the cells with 2 mM dithiothreitol (DTT). After an additional 45 minutes (2 hours total) with compound and DTT, the cells are harvested with TRIZOL® (a mono-phasic solution of phenol and guanidine isothiocyanate), and total RNA is prepared as directed by the manufacturer (Invitrogen). Human XBP-1 is amplified by RT-PCR with the following primers, which flank the 26 base unconventional intron excised by IRE-1α:
RT-PCR of unstressed (U) cells then generates the upper band. When cells are stressed (S) with the endoplasmic reticulum (ER) stressing agent DTT, IRE-1α is activated due to accumulating unfolded protein and the resulting RT-PCR product is 26 base pairs shorter.
Compounds which pass specificity assays are assayed for cellular EC50 using endogenous XBP-1 splicing in myeloma cells. XBP-1 is regulated through the excision of a 26 nucleotide intron from the XBP-1 mRNA by the highly specific endoribonuclease activity of IRE-1α. […] This splicing event is used to measure IRE-1α activity on XBP-1 mRNA in cells and tissues.
Briefly, compounds are incubated in the presence or absence of an ER stress agent (e.g., DTT), and the ratio of XBP-1u (unspliced) to XBP-1s (spliced) is quantified by RT-PCR. The ED50 is determined as the 50% XBP-1s to total XPB-1 levels.

Chain of IRE-1α (O75460 19-977): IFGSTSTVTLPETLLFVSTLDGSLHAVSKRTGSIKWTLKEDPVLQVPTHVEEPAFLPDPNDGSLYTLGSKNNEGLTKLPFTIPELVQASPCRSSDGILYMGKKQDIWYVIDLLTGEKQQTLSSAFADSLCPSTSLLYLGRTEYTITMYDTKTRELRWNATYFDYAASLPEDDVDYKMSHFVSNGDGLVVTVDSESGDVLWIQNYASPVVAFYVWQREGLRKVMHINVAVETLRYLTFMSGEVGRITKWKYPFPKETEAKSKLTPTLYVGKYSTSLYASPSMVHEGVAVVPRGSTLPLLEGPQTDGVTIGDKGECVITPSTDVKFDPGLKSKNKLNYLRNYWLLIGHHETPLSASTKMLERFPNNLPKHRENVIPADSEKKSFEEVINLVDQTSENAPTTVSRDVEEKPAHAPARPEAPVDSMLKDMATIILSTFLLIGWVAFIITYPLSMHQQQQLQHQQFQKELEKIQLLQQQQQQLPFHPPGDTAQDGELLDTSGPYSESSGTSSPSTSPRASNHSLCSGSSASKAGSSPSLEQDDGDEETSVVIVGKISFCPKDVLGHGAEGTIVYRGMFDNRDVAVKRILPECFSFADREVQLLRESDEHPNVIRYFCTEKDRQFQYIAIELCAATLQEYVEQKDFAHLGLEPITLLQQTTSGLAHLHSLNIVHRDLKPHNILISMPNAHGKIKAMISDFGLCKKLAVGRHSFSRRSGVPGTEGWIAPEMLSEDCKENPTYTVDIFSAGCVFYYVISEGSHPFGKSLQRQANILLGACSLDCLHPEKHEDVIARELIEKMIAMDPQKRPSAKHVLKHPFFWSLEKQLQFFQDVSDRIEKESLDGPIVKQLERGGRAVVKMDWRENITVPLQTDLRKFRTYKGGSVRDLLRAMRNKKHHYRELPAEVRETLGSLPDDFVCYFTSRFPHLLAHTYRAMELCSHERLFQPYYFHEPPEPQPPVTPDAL

EC50 | Structure (SMILES)
> 10 µM | COc1cc2c(=O)c(CC(=O)NCCN(C)C)c(C)oc2c(C=O)c1O [Example 211]
< 10 µM | CCNC(=O)c1cc2c(C=O)c(O)ccc2s1 [Example 261]
> 10 µM | COCCNC(=O)CCc1c(COC)c2cc(OC)c(O)c(C=O)c2oc1=O [Example 138]
> 10 µM | Cc1c(-c2cccc(C(=O)N(C)C)c2)c(=O)oc2c(C=O)c(O)ccc12 [Example 20]
> 10 µM | CCNC(=O)CCc1nc2c(C=O)c(O)ccc2n1C [Example 230]
< 10 µM | COc1cc2c3c(c(=O)oc2c(C=O)c1O)CCC3 [Example 198]
> 10 µM | Cc1oc2c(C=O)c(O)ccc2c(=O)c1CC(=O)N1CCOCC1 [Example 221]
< 10 µM | CCc1cc2c(C)c(-c3ccc(C(=O)NCCOC)cc3)c(=O)oc2c(C=O)c1O [Example 118]
10 µM | Cc1c(CC(=O)N2CCOCC2)c(=O)oc2c(C=O)c(O)c(OCCN3CCOCC3)cc12 [Example 206]
< 10 µM | CCNC(=O)Cc1c(C)oc2c(C=O)c(O)cc(OC)c2c1=O [Example 228]
> 10 µM | CN1CCN(C(=O)CCc2nc3c(C=O)c(O)ccc3o2)CC1 [Example 251]
< 10 µM | COCCNC(=O)Cc1c(C)oc2c(C=O)c(O)cc(OC)c2c1=O [Example 226]
< 10 µM | CCOC(=O)Cc1c(C)c2cc(OC)c(O)c(C=O)c2oc1=O [Example 131]
< 10 µM | COc1cc2c(C)c(-c3ccc(N(C)C)nc3)c(=O)oc2c(C=O)c1O [Example 115]
> 10 µM | O=Cc1c(O)ccc2c(=O)c(-c3cnn(-c4ccccc4)c3)coc12 [Example 40]
> 10 µM | O=Cc1c(O)ccc2sc(CCC(=O)N3CCOCC3)cc12 [Example 268]
< 10 µM | Cc1c(CCC(=O)N2CCN(C)CC2)c(=O)oc2c(C=O)c(O)ccc12 [Example 15]
> 10 µM | COc1cc2c(C)c(CC(=O)NCCO)c(=O)oc2c(C=O)c1O [Example 148]
< 10 µM | COc1cc2c(C(C)C)cc(=O)oc2c(C=O)c1O [Example 146]
> 10 µM | CN(C)CCNC(=O)c1cc2c(C=O)c(O)ccc2[nH]1 [Example 278]
< 10 µM | Cc1oc2c(C=O)c(O)ccc2c(=O)c1CCC(=O)N1CCOCC1 [Example 216]

EC50 | Structure (SMILES)
< 10 µM | COCc1c(CCC(=O)N2CCOCC2)c(=O)oc2c(C=O)c(O)c(OC)cc12 [Example 139]
< 10 µM | O=Cc1c(O)ccc2oc(C(=O)NCCN3CCOCC3)cc12 [Example 286]
> 10 µM | COCCNC(=O)CCc1nc2c(C=O)c(O)ccc2n1C [Example 241]
> 10 µM | CN1CCN(C(=O)c2cc3c(C=O)c(O)ccc3[nH]2)CC1 [Example 275]
< 10 µM | Cc1c(/C=C/C(=O)N2CCN(C)CC2)c(=O)oc2c(C=O)c(O)ccc12 [Example 112]
> 10 µM | COc1cc2c(C)c(C(C)C)c(=O)oc2c(C=O)c1O [Example 200]
< 10 µM | CCOC(=O)Cc1c(C)c2c(OCCOC)cc(O)c(C=O)c2oc1=O [Example 158]
< 10 µM | COCCNC(=O)Cc1c(C)oc2c(C=O)c(O)ccc2c1=O [Example 220]
< 10 µM | Cc1nc(-c2c(C)c3ccc(O)c(C=O)c3oc2=O)sc1C(=O)N1CCN(C)CC1 [Example 110]
> 10 µM | Cc1nc(N2CCc3c(ccc(O)c3C=O)C2)sc1C(=O)NCCN1CCOCC1 [Example 37]
> 10 µM | CCOC(=O)CCc1nc2c(C=O)c(O)ccc2o1 [Example 247]
< 10 µM | CCNC(=O)c1cc2c(C=O)c(O)ccc2o1 [Example 285]
> 10 µM | Cn1c(CCC(=O)O)nc2ccc(O)c(C=O)c21 [Example 240]
< 10 µM | COc1cc(O)c(C=O)c2oc(=O)cc(C)c12 [Example 120]
> 10 µM | Cc1oc2c(C=O)c(O)ccc2c(=O)c1CC(=O)NCCN(C)C [Example 224]
> 10 µM | COCCNC(=O)c1ccc(-c2c(C)c3cc(Cl)c(O)c(C=O)c3oc2=O)cc1 [Example 150]
> 10 µM | COc1cc2c(=O)c(CCC(=O)NCCN3CCOCC3)c(C)oc2c(C=O)c1O [Example 93]
> 10 µM | COCCOc1cc(O)c(C=O)c2oc(=O)c(CCC(=O)NCCN3CCOCC3)c(C)c12 [Example 156]
> 10 µM | COCCNC(=O)CCc1c(C)oc2c(C=O)c(O)c(OC)cc2c1=O [Example 212]
< 10 µM | CCc1cc2c(C)c(-c3ccc(C(=O)NCCN4CCOCC4)cc3)c(=O)oc2c(C=O)c1O [Example 117]
> 10 µM | CN1CCN(C(=O)c2cc3c(C=O)c(O)ccc3s2)CC1 [Example 260]

EC50 | Structure (SMILES)
> 10 µM | CN1CCN(C(=O)CCc2nc3ccc(O)c(C=O)c3n2C)CC1 [Example 239]
< 10 µM | COCCc1c(C)c2c(O)cc(O)c(C=O)c2oc1=O [Example 123]
> 10 µM | O=Cc1c(O)ccc2oc(CCC(=O)N3CCOCC3)nc12 [Example 250]
< 10 µM | COc1cc(O)c(C=O)c2oc(=O)c(CCC(=O)NCCN3CCOCC3)c(C)c12 [Example 196]
> 10 µM | COc1cc2c(=O)c(CC(=O)NCCN3CCOCC3)c(C)oc2c(C=O)c1O [Example 210]
> 10 µM | O=Cc1c(O)ccc2nc(-c3cccc(C(=O)O)c3)[nH]c12 [Example 64]
< 10 µM | COc1cc2c(C)c(-c3ccc(C(=O)NCCN4CCOCC4)s3)c(=O)oc2c(C=O)c1O [Example 143]
< 10 µM | COCCOc1cc2c(C)c(CCC(=O)N3CCN(C)CC3)c(=O)oc2c(C=O)c1O [Example 182]
> 10 µM | CN(C)CCNC(=O)c1cc2c(C=O)c(O)ccc2s1 [Example 263]
> 10 µM | O=Cc1c(O)ccc2sc(CC(=O)O)cc12 [Example 265]
< 10 µM | COCc1c(C)c(=O)oc2c(C=O)c(O)ccc12 [Example 137]
> 10 µM | COCCNC(=O)CCc1nc2ccc(O)c(C=O)c2n1C [Example 237]
< 10 µM | Cc1nc(-c2cc3ccc(O)c(C=O)c3oc2=O)sc1C(=O)NCCN1CCOCC1 [Example 109]
< 10 µM | COc1cc2c(C)c(-c3ccc(C(=O)N4CCN(C)CC4)s3)c(=O)oc2c(C=O)c1O [Example 141]
> 10 µM | COc1cc2c(=O)c(CCC(=O)N3CCN(C)CC3)c(C)oc2c(C=O)c1O [Example 94]
> 10 µM | CCOC(=O)c1cc2c(C=O)c(O)ccc2o1 [Example 280]
< 10 µM | COCCOc1cc(O)c(C=O)c2oc(=O)cc(C)c12 [Example 121]
< 10 µM | COCCOc1cc2c(C)c(CCC(=O)N3CCOCC3)c(=O)oc2c(C=O)c1O [Example 181]
> 10 µM | Cc1c(-c2ccc(C(=O)N3CCOCC3)cc2)c(=O)oc2c(C=O)c(O)c(Cl)cc12 [Example 67]
< 10 µM | Cc1c(-c2ccc(C(=O)NCCN3CCOCC3)cc2)c(=O)oc2c(C=O)c(O)ccc12 [Example 3]
< 10 µM | CCNC(=O)CCc1c(C)oc2c(C=O)c(O)ccc2c1=O [Example 217]

EC50 | Structure (SMILES)
> 10 µM | Cn1c(CCC(=O)N2CCOCC2)nc2ccc(O)c(C=O)c21 [Example 229]
< 10 µM | COCCNC(=O)Cc1c(C)c2c(OC)cc(O)c(C=O)c2oc1=O [Example 176]
< 10 µM | COC(=O)c1cccc(-c2nc3ccc(O)c(C=O)c3[nH]2)c1 [Example 65]
< 10 µM | COc1cc(O)c(C=O)c2oc(=O)c(C)c(CN3CCOCC3)c12 [Example 134]
> 10 µM | CN1CCN(c2ncc(C(=O)N3CCc4c(ccc(O)c4C=O)C3)s2)CC1 [Example 38]
> 10 µM | O=Cc1c(O)ccc2nc(CCC(=O)NCCN3CCOCC3)[nH]c12 [Example 235]
> 10 µM | CN(C)CCNC(=O)CCc1nc2c(C=O)c(O)ccc2[nH]1 [Example 236]
< 10 µM | CCNC(=O)CCc1c(C)c2cc(OCCOC)c(O)c(C=O)c2oc1=O [Example 183]
< 10 µM | COc1cc(O)c(C=O)c2oc(C)c(CC(=O)N3CCOCC3)c(=O)c12 [Example 227]
10 µM | COCCNC(=O)Cc1c(C)c2cc(OCCN3CCOCC3)c(O)c(C=O)c2oc1=O [Example 205]
< 10 µM | Cc1c(-c2cccc(C(=O)N3CCN(C)CC3)c2)c(=O)oc2c(C=O)c(O)ccc12 [Example 10]
> 10 µM | O=Cc1c(O)ccc2oc(C(=O)N3CCOCC3)cc12 [Example 283]
> 10 µM | Cc1c(-c2ccc(C(=O)NCCN3CCOCC3)cc2)c(=O)oc2c(C=O)c(O)c(Cl)cc12 [Example 151]
> 10 µM | CN1CCN(C(=O)c2cc3c(C=O)c(O)ccc3o2)CC1 [Example 284]
< 10 µM | CCOC(=O)c1sc(-c2cc3ccc(O)c(C=O)c3oc2=O)nc1C [Example 68]
< 10 µM | COCCc1c(C)c2c(OC)cc(O)c(C=O)c2oc1=O [Example 124]
> 10 µM | CCNC(=O)CCc1cc2c(C=O)c(O)ccc2s1 [Example 269]
> 10 µM | CN1CCN(C(=O)c2cnc(N3CCc4c(ccc(O)c4C=O)C3)s2)CC1 [Example 33]

Structure (SMILES) | EC50
COc1cc2c(C)c(CC(=O)N3CCN(C)CC3)c(=O)oc2c(C=O)c1O [Example 168] | < 10 µM
COc1cc2c(=O)c(CC(=O)N3CCN(C)CC3)c(C)oc2c(C=O)c1O [Example 208] | > 10 µM
COCCOc1cc(O)c(C=O)c2oc(=O)c(CC(=O)N3CCN(C)CC3)c(C)c12 [Example 161] | < 10 µM
Cc1oc2c(C=O)c(O)ccc2c(=O)c1CC(=O)N1CCN(C)CC1 [Example 222] | < 10 µM
